Experimental data as given in patent publication US20210246164A1, “PEPTIDIC PROTEIN KINASE C INHIBITORS AND USES THEREOF” (UNIVERSITE DE GENEVE, priority 2016, published 2021).
Where a SMILES comes first, the peptide text is derived from it. Where no end group is shown, it is not given here. The star is where a group is joined. Myristoyl = CCCCCCCCCCCCCC(=O)*

Assays:
[1] = in vitro; details: human, Caco-2 cells
Description: (§12) Viability of Caco-2 cells (human intestinal epithelial cell line) was determined by a cell proliferation assay using WST-1 based colorimetric assay. […] WST-1 reagent (diluted 1:10 in cell culture medium) was added as described in the instruction manual (Roche Diagnostics GMBH, Mannheim, Germany). Following 1-3 h incubation at 37° C. with the peptides or controls, absorbance at 450 nm (reference at 690 nm) was measured by a BioTek Synergy Mx plate reader. Percentage of cell viability was calculated based on the absorbance measured relative to that of cells exposed to only culture medium (control group). Sodium dodecyl sulfate (SDS) at 2% was used as a positive control for cell toxicity.

[2] = test system: primary human nasal epithelial cell monolayers; assay: Permeabilization of fluorescein-conjugated dextran (FD) across nasal epithelial monolayers (cumulative release, Papp); type: cell-based
Description: (§1) To assess the potential effects of peptides of the invention on the permeabilization of therapeutic molecules, fluorescein-conjugated dextrans (FD) were used to as a model for assessing paracellular drug transport (apical to basolateral) across the epithelial monolayer.
(§2) To ensure that the integrity of the monolayer was maintained during the course of the experiment, trans-epithelial electrical resistance (TEER) was measured before and after these studies, as described below.
(§3) Mucilair™ human primary nasal and bronchial epithelial cells (Epithelix sarl, Geneva, Switzerland) were used (Huang et. al., 2013, Toxicol. in Vitro 27: 1151-1156).
(§4) Before each experiment, the culture medium was removed from each compartment and the monolayer was washed once with 200 μl of saline (0.9%) and once with warm Hanks' Balanced Salt Solution (HBSS) (37° C.). In the basolateral compartment, 600 μL of pre-warmed HBSS was placed and the cells were returned to the incubator at 37° C. for 30 minutes to equilibrate. After equilibration, the peptides of the invention were applied to the apical side of an epithelial monolayer 5 minutes prior to the addition of FD solution. Peptide 1 according to the invention (P1 of SEQ ID NO: 2) was tested in comparison with comparative peptides C1 (SEQ ID NO: 4) and C2 (SEQ ID NO: 5). FD having a molecular weight (MW) of 4 and 150 kDa were used.
(§5) All peptides were used at a final concentration of 10 μM. The vehicle was used as a control (CTRL). The FD solution was added to the apical compartment to make a final volume of 200 μl. Samples of 100 μL were taken from the basal compartment of each well every 30 minutes over a period of 150 minutes, with each volume being replaced with equal amount of fresh warm buffer to maintain sink condition. The fluorescence of FD was measured in black 96-well plates using a fluorescence plate reader (BioTek Synergy Mx plate reader, BioTek Instruments GmbH, Lucerne, Switzerland), using excitation and emission wavelengths of 485 and 520 nm, respectively. Cumulative release (ng) corresponds to the actual amount of drug released cumulatively and corresponds to the amount in the suspension medium at any time plus the amount of the drug lost during each sampling.
(§6) Trans-epithelial electrical resistance (TEER): After addition of 200 μl of culture medium to the apical compartment of the tissue cultures, resistance was measured across cultures with an EVOMX volt-ohm-meter (World Precision Instruments UK, Stevenage) in triplicate for each time point. The TEER values (Ω) were converted normalized by using the following formula: TEER (Ωcm^2)=(resistance value (Ω)−100 (Ω))×0.33 (cm^2), where 100Ω is the resistance of the membrane and 0.33 cm^2 is the total surface of the epithelium.
(§7) To assess the role of the membrane penetrating group (myristoyl) in peptides of the invention in the enhancing of the permeability of macromolecules through epithelial cell layers, the permeabilizing capacity of peptide P1 of the invention was compared to a comparative peptide C3 (SEQ ID NO: 6) corresponding to the same peptide without the myristoyl group. The permeabilizing capacity of a peptide P2 (SEQ ID NO: 3) of the invention was also assessed. Uptake experiments and TEER were conducted as described in Example 2.
(§8) To assess the duration of the permeabilization effect of the peptide of the invention, apparent permeability of peptides of various lengths was evaluated as follows. Apparent permeability refers to the amount of released FD at that time point when the sample is collected.
(§9) The tested Peptides, uptake experiments and TEER were as described in Example 2.
(§10) Apparent permeability of FD: The apparent permeability (Papp) of FD was calculated using equation 1: Papp=(dQ/dt)/A*C0 (1)

[3] = test system: primary human bronchial epithelial cell monolayers; assay: Permeabilization of fluorescein-conjugated dextran (FD) across bronchial epithelial monolayers (cumulative release, Papp); type: cell-based
Description: as §1, §2, §3, §4, §5, §6, §7, §8, §9, §10

[4] = test system: TJ proteins occludin and ZO-1 in primary human bronchial epithelial cell monolayers; assay: Immunofluorescence of TJ proteins occludin and ZO-1, bronchial cells (confocal microscopy); type: cell-based; details: 50 μM peptide, 2 hours
Description: (§11) The effect of peptides of the invention on the tight junction structure of human primary nasal and bronchial epithelial cells were evaluated by confocal microscopy as follows. Mucilair™ human primary nasal and bronchial epithelial cells (Epithelix Sarl, Geneva, Switzerland) were incubated with 50 μM of peptide of the invention P1 or comparative peptides C1 and C2 for 2 hours and washed twice with phosphate buffered saline (PBS) (without Ca^2+/Mg^2+) at 37° C. Cells were fixed with methanol/acetone (50:50) for 5 minutes at […], air-dried, and washed with TBST (mixture of tris-buffered saline (TBS) and Polysorbate 20). Cell monolayers were blocked using a solution of 3% bovine serum albumin (BSA) in PBS for 60 minutes at room temperature and incubated with primary antibody against occludin (Cat: 331588, Invitrogen, Zug, Switzerland); dilution (1:200)) and ZO-1 (zonula occludens-1 protein) (Cat: 339194, Invitrogen, Zug, Switzerland); dilution (1:200)) in dilution buffer. Samples were mounted (Vectashield mounting media with DAPI (4′,6-diamidino-2-phenylindole); Vector Laboratories) and assessed within the next 24 hours by using a laser-scanning confocal microscope (CLSM; Plan-Apochromat 63/1.40 (oil) DIC objective, Zeiss Axiovert 100M-LSM 510; Carl Zeiss, Oberkochen, Germany). […]

[5] = test system: Antigen-specific serum antibodies (IgG total and IgG1); assay: Intranasal immunization with Ova, antigen-specific serum antibodies by ELISA; type: in vivo, mice; details: i.n. 5 μg Ova with 5 μg P1 vs Ova alone; after three immunizations
Excerpt: The effect of peptides of the invention on the efficacy of mucosal vaccines has been investigated by administering a combination of P1 with a soluble protein antigen and induced immunization has been investigated.
6 week-old female C57-BL/6 mice were purchased from Charles River Laboratories (Harlan, France) and hosted under standard conditions following the corresponding guidelines of Animal Ethic Committee. Mice (n=5) were immunized by intranasal (i.n.) administration under anesthesia on days 0, 14, and 28 with the following immunogens: saline (PBS) as a negative control, ovalbumin (Ova) (in NaCl 0.9% solution) or Ova+P1 Ova/dose (5 μg) (mixture of solution of Ova in NaCl 0.9% and solution of P1 in NaCl 0.9%) as a mixture were administered to each animal group in 12 μL (6 μL per nostril). P1 was used at a concentration of 5 μg/dose. […]
Antigen-specific serum antibodies (IgG total and IgG1) were measured by ELISA (enzyme-linked immunosorbent assay). […] Plates were washed 4 times, and HRP was quantified by adding 100 μl of TMB (3,3′,5,5′-Tetramethylbenzidine) substrate (Pierce Protein Research Products; Rockford, Ill.). Antibody titers were determined at the midpoint of the optical density-log dilution curves after subtraction of the naive background, and none-responding mice were given an arbitrary titer of 10.

[6] = test system: TJ proteins occludin and ZO-1 in primary human nasal epithelial cell monolayers; assay: Immunofluorescence of TJ proteins occludin and ZO-1, nasal cells (confocal microscopy); type: cell-based; details: 50 μM peptide, 2 hours
Description: as §11

[7] = test system: OCA_EGFR19del cultures (HCC827 cells); assay: Tumor size in OncoCilAir non-small cell lung cancer model; type: cell-based
Excerpt: HCC827 cells (lung adenocarcinoma) mutated in the tyrosine kinase domain of the EGFR (epidermal growth factor receptor) were used (model OncoCilAir™, wherein Non-Small Cell Lung Cancer (NSCLC) cells were tagged with green fluorescent protein (GFP)).
Tumour morphometry was resolved by fluorescence microscopy using a Zeiss Axiocam microscope platform. Growth curves were based on various images were acquired every 2 days and the area of the green fluorescent protein positive (GFP^+) tumour was measured using the Image-Pro Plus Software (MediaCybernetics, Rockville, Md., USA). For each time point, the ratio of the total area occupied by tumours to the size of the insert was calculated and expressed as percentage of day 0, at the start of the treatment (tumor occupancy). Identical analyses settings, i.e. fixed fluorescence intensity threshold and fixed size threshold ([…]) were applied to all processed images. Percentage of tumour growth inhibition was calculated using the formula: (1−[tumour occupancy in treatment group/tumour occupancy in control group]×100).

[8] = test system: Caco-2 cells; assay: Cell viability, WST-1 based colorimetric assay; details: 24 hours
Description: as §12

[9] = test system: non-small cell lung cancer (NSCLC); details: compared to chemotherapies; cited from earlier work
[10] = P1 1 μM apical + gefitinib 1 μM apical
[11] = peptide 10 μM apical, 150 minutes, vs control

In the case of `CCCCCCCCCCCCCC(=O)N[C@@H](CO)C(=O)N[C@H](C(=O)N[C@@H](Cc1ccc(O)cc1)C(=O)N[C@@H](CCCNC(=N)N)C(=O)N[C@@H](CCCNC(=N)N)C(=O)NCC(=O)N[C@@H](C)C(=O)N[C@@H](CCCNC(=N)N)C(=O)N[C@@H](CCCNC(=N)N)C(=O)N[C@@H](Cc1c[nH]c2ccccc12)C(=O)N[C@@H](CCCNC(=N)N)C(=O)N[C@@H](CCCCN)C(=O)N[C@@H](CC(C)C)C(=O)O)[C@@H](C)CC` [Peptide C1, reference compound] (Myristoyl-SIYRRGARRWRKL-OH; C-terminus assumed), the viability at 24 h, 50 µM [1] is reported as 55.2%, the viability at 24 h, 100 µM [1] is reported as 34% and the “reversibility of permeabilization of FD 4 kDa (decrease in Papp overtime)” value (from here on “reversibility … (decrease in Papp overtime)”) ([2]; peptide 10 μM, 150 minutes) is reported as “reversible”. The “reversibility … (decrease in Papp overtime)” value ([3]; peptide 10 μM, 150 minutes) was “reversible”.

With `CCCCCCCCCCCCCC(=O)N[C@@H](C)C(=O)N[C@@H](CCCNC(=N)N)C(=O)N[C@@H](CCCNC(=N)N)C(=O)N[C@@H](Cc1c[nH]c2ccccc12)C(=O)N[C@@H](CCCNC(=N)N)C(=O)O` [Peptide P1, Myr-ARRWR] (Myristoyl-ARRWR-OH) the “redistribution of occludin and ZO-1” value [4] was “causes desired TJ proteins redistribution”, the “Ova-specific serum IgG1 response” value [5] was “significantly higher” and the “Ova-specific serum IgG (total) response” value [5] was “significantly higher”. The “redistribution of occludin and ZO-1” value [6] was “causes desired TJ proteins redistribution”, the “effect of combination on tumour size vs gefitinib alone” value [7, 10] was “significantly more efficacious than the gefitinib alone” and the “time at which maximal therapeutic effect was obtained” value [7, 10] was 3 days. The “effect of combination on tumour progression vs gefitinib alone” value ([7]; P1 1 μM apical + gefitinib 1 μM basal) was “significantly potentiated the effects of the drug on tumour progression”, the “effect of combination on tumour progression vs gefitinib alone” value ([7]; P1 1 μM apical + gefitinib 5 μM basal) was “significantly potentiated the effects of the drug on tumour progression” and the “effect on tumor size” value ([7]; P1 alone 1 μM apical, 6 expositions over 14 days, vs DMSO) was “had no effect on tumor size”. The “toxicity on Caco-2 cells” value ([8]; 50 μM) was “did not show any toxicity”, the “concentration non-toxic to cells” value [8] was “at least 50 μM” and the viability at 24 h, 100 µM [1] was 76.7%. For the same molecule, the “permeability of FD of 150 kDa (cumulative release)” value [2, 11] was “significantly increases the permeability”, the “permeability of fluorescein conjugated dextran of 4 kDa (cumulative release)” value (“permeability … of 4 kDa (cumulative release)” for short) [2, 11] was “increased the permeability of the fluorescein conjugated dextran of 4 kDa in a significant manner” and the “Papp for FD of 150 kDa over time” value ([2]; peptide 10 μM, 150 minutes) was “immediate increase in the first 30 minutes and steadily decreased therefrom”. The “reversibility … (decrease in Papp overtime)” value ([2]; peptide 10 μM, 150 minutes) was “reversible”, the “reversibility of the permeabilization effect, FD of 150 kDa” value ([2]; peptide 10 μM, FIG. 6) was “Reversibility of the permeabilization effect was also observed” and the “permeability of FD of 150 kDa (cumulative release)” value [3, 11] was “significantly increases the permeability”. For the same molecule, the “permeability … of 4 kDa (cumulative release)” value [3, 11] was “increased the permeability of the fluorescein conjugated dextran of 4 kDa in a significant manner”, the “Papp for FD of 150 kDa over time” value ([3]; peptide 10 μM, 150 minutes) was “immediate increase in the first 30 minutes and steadily decreased therefrom” and the “reversibility … (decrease in Papp overtime)” value ([3]; peptide 10 μM, 150 minutes) was “reversible”. For the same molecule, the “reversibility of the permeabilization effect, FD of 150 kDa” value ([3]; peptide 10 μM, FIG. 6) was “Reversibility of the permeabilization effect was also observed”.

In the case of `COc1cc2ncnc(Nc3ccc(F)c(Cl)c3)c2cc1OCCCN1CCOCC1` [gefitinib, N-(3-Chloro-4-fluorophenyl)-7-methoxy-6-(3-morpholinopropoxy) quinazolin-4-amine], the “progression free survival (PFS)” value [9] is given as 7.7-12.9 months.

With “ARRWR (not fully specified (N-terminus)) [Peptide C3, same peptide as P1 without the myristoyl group, reference compound]” the “permeability … of 4 kDa (cumulative release)” value [2, 11] was “did not show significant difference in permeabilization ability compared to the negative control” and the “permeability … of 4 kDa (cumulative release)” value [3, 11] was “did not show significant difference in permeabilization ability compared to the negative control”.

In the case of “Myr-AKRWR (Myristoyl-AKRWR) [Peptide P2]”, the “permeability … of 4 kDa (cumulative release)” value [2, 11] is reported as “increased the permeability of the fluorescein conjugated dextran of 4 kDa in a significant manner”.

With “N-acetyl-ARR [Peptide C2, reference compound]” the “permeability … of 4 kDa (cumulative release)” value [2, 11] was “not differing from control” and the “permeability … of 4 kDa (cumulative release)” value [3, 11] was “not differing from control”.
